Data from paper PMC3443238, “Synthesis and Antiangiogenic Activity of N-Alkylated Levamisole Derivatives” (PLoS ONE, 2012).
Where a name gives a salt, the structure may show the parent alone.

Tested on: human umbilical vein endothelial cells (HUVECs) in co-culture with normal human dermal fibroblasts (NHDF)
Experiment: in vitro angiogenesis assay, HUVEC-NHDF co-culture, CD31 immunostaining
Format: cell-based
Protocol: The antiangiogenic effects of the compounds were determined in a previously developed assay, designed to evaluate the growth and differentiation of human umbilical vein endothelial cells (HUVECs) in co-culture with normal human dermal fibroblasts (NHDF). […] The cluster morphology known from (S)-levamisole, was also observed for tetramisole (2) (Figure 5B and Table 1), p-bromolevamisole (3) (Figure 5C and Table 1), and N-methyllevamisoles (7a, b), with the latter mentioned showing a slightly more pronounced effect (Figure 5E and F, Figure 6 A–D, Table 1). […] Compound 4 (Figure 5D and Table 1), on the other hand, inhibited the capillary network formation to give small cords exclusively, which is reminiscent of the effect of suramin (5) (Figure 5N and Table 1), another well-known angiogenesis inhibitor [44], [51].
Co-culture cell assays were performed according to a method described previously, [44]. Briefly, 10^3 NHDFs were cultured in each well of a 96-well microtiter plate in NHDF standard medium (100 μL, FGM-2 Bullet kit) at 37°C in an atmosphere containing 5% CO2. After 3 days the medium was removed and 10^3 HUVECs were seeded onto the NHDF in TFSM2 medium (135 μL). The samples of the individual compounds were prepared by weight and dissolved in a concentration of […] in DMSO, PBS, or Milli-Q water followed by pH adjustment, and sterile filtration through 0.22 μm filters. Medium, buffer controls or test samples of 15 µL were added to each well containing the HUVEC–NHDF co-culture and were incubated for 3 days. Experiments were repeated 2–4 times with identical results.
HUVEC and fibroblasts were stained with a CD31 antibody according to the method previously described, [44]. Briefly, the cells were washed with PBS, fixed with ethanol, blocked with TTN buffer, incubated with mouse anti-human CD31 diluted 1∶250 in TTN buffer, washed in TTN buffer and incubated with alkaline phosphatase-conjugated goat anti-mouse IgG diluted 1∶1000 in TTN buffer. Bound antibody was subsequently visualised with BCIP/NBT and inspected in an Olympus IX70 microscope and photographed with an Olympus DP12 digital camera (Magnification: 40x). Image analysis was carried out using the program AnalySIS (Soft Imaging Systems, Münster, Germany).

[1] = concentration not given, results not shown

In the case of `Nc1ccc(-c2cn3c(n2)SCC3)cc1` [Compound 4, 4-(2,3-dihydroimidazo-[2,1-b]thiazol-6-yl)aniline, reference compound], the Grading (1 mM) was “+++ (cords with area <4%)”, the Morphology (1 mM) was “Cords” and the “Area % (percent of the area covered by HUVEC as observed by CD31 staining)” value (1 mM, medium control 10.2, DMSO 8.4) was 2.0%. For the same compound, the “inhibition of angiogenesis compared with (S)-levamisole hydrochloride (1)” value (Figure 5, Table 1) was “more potent than (S)-levamisole hydrochloride”.
`c1ccc(C[N+]2=C3SCCN3C[C@@H]2c2ccccc2)cc1` [Compound 11a, N-benzyllevamisole bromide] was tested, and the “Area % (percent of the area covered by HUVEC as observed by CD31 staining)” value (0.7 mM) was 2.8%, the Grading (0.7 mM) was “+” and the Morphology (0.7 mM) was “Mixed”.
`NC(CO)(CO)CO` [TRIZMA, reference compound] was tested, and the “effect in the angiogenesis assay” value [1] was “neither showed an effect”.
In the case of `Cn1ccnc1` [N-methylimidazole, reference compound], the “effect in the angiogenesis assay” value (1 mM) was “no effect” and the “effect in the angiogenesis assay” value (10 mM) was “had an effect”.
For `O=C(O)CNC(CO)(CO)CO` [TRICINE, reference compound], the “effect in the angiogenesis assay” value [1] was “neither showed an effect”.
In the case of `OCCN(CCO)C(CO)(CO)CO` [BIS-TRIS, reference compound], the “effect in the angiogenesis assay” value (10 mM) was “Neither BIS-TRIS nor BICINE showed any effects”.
For `CCCC[N+]1=C2SCCN2C[C@@H]1c1ccccc1` [Compound 10, (S)-N-(n-Butyl)-levamisole trifluoroacetate], the “Area % (percent of the area covered by HUVEC as observed by CD31 staining)” value (0.3 mM) was 5.0%, the Grading (0.3 mM) was “+” and the Morphology (0.3 mM) was “Mixed”.
In the case of `O=C(O)CN(CCO)CCO` [BICINE, reference compound], the “effect in the angiogenesis assay” value (10 mM) was “Neither BIS-TRIS nor BICINE showed any effects”.
In the case of `O=S(=O)(O)CCN1CCN(CCO)CC1` [HEPES, reference compound], the “effect in the angiogenesis assay” value [1] was “neither showed an effect”.
For `CC[N+]1=C2SCCN2C[C@@H]1c1ccccc1` [Compound 8b, N-ethyllevamisole trifluoroacetate], the “Area % (percent of the area covered by HUVEC as observed by CD31 staining)” value (0.2 mM) was 5.4%, the Grading (0.2 mM) was “+” and the Morphology (0.2 mM) was “Mixed”.
